This is an account of results in US12049474B2, “Nucleoside prodrugs and uses related thereto” (Emory University, priority 2019, dated 2024).

One data set addresses CYP2D6 (Homo sapiens (Human), UniProt P10635). In words: biochemical. In kind it is biochemical. The conditions noted are these: human recombinant CYP2D6, AMMC substrate; read-out: CYP450 IC50 2D6. On the procedure: (§1) The CYP450 inhibition assays utilized microsomes from insect cells expressing human recombinant individual cDNA-expressed CYP isoforms 3A4 and 2D6, as well as the fluorogenic probe that produces fluorescent metabolite. Standard inhibitors were co-incubated with fluorogenic substrates and their inhibitory potential (IC50) was determined. Assay conditions in terms of CYP450 protein concentration and time of incubation were standardized, enzyme kinetics parameters of each fluorescent probe substrate were estimated and IC50 values of inhibitors were determined and validated on different days to check reproducibility.
(§2) A 100 mM sodium phosphate buffer was prepared and adjusted to pH 7.4. In a separate falcon tube, a 2× enzyme/substrate (E/S) solution was prepared in phosphate buffer. The final concentration of CYP2D6 (CORNING®) and […] (AMMC) was 10 nM and 4 μM, and CYP3A4 (CORNING®) and 7-benzyloxy-4-(trifluoromethyl) coumarin (BFC) was 20 nM and 40 μM, respectively. In a separate falcon tube, a 2×NADPH regenerating system (NRS) was prepared in phosphate buffer. The final concentration for each component in the assay was as follows: • CYP2D6 assay: 0.008 mM NADPH, 3.3 mM glucose 6-phosphate, 0.4 U of glucose-6-phosphate dehydrogenase per mL
(§3) Both enzymatic assays were conducted in a 96-well microtiter plate (Black, CORNING® COSTAR®) with a final volume of 100 μL. Preparation of the plate began with the addition of 74 μL of the E/S in the first well, and 50 μL to all subsequent wells (from 2-11). The test compounds (1 μL) were dissolved in the first well to give the first row a final volume of 75 μL. A 1:3 serial dilution of the test compound was conducted by removing 25 μL from the first well and diluting it with the second and so forth until the tenth row. Final concentrations yielded a range from 200 μM-0.01 μM. Well no. 11 contained no inhibitor, and well no. 12 contained no enzyme. Both were used as controls for background fluorescence. The plate was incubated for 30 min at 37° C. After incubation, the reaction was initiated by the addition of 50 μL of the 2×NRS to each well.
Immediately (within 1 min) the fluorescence was measured using a microplate reader (BIOTEK® Synergy Neo2). CYP2D6 was monitored at Ex/Em=410/460 nm, and CYP3A4 monitored at Ex/Em=410/538 nm in kinetic mode that scanned every 5 min for 60 mins. Data was exported and analyzed using Graph Pad Prism 7. […] The IC50 value was derived after the data was fitted on a 10-point curve using a four-parameter logistic regression model.

The target in another data set is CYP3A4 (Homo sapiens (Human), UniProt P08684). In words: Fluorometric CYP450 enzyme inhibition assay, CYP3A4. To be noted: human recombinant CYP3A4, BFC substrate; read-out: CYP450 IC50 3A4. In kind it is biochemical. On the procedure: as §1, §2
Chain of CYP3A4 (P08684 whole entry): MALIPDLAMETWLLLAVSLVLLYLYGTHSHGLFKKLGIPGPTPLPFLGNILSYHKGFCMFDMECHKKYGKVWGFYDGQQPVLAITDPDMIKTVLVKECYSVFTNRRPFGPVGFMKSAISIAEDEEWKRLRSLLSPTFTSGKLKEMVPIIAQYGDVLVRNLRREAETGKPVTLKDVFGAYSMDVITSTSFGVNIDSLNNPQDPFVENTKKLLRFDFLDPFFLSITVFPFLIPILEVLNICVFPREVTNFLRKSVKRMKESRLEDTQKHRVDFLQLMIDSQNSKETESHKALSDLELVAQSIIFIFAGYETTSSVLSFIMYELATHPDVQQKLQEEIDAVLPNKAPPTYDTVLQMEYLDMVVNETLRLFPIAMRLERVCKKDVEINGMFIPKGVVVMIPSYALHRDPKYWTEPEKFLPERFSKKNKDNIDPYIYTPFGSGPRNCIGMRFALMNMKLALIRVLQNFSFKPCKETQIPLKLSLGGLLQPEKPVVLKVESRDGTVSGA
as §3, with “The test compounds (1 μL) were dissolved in the first well to give the first row a final volume of 75 μL.” left out
Immediately (within 1 min) the fluorescence was measured using a microplate reader (BIOTEK® Synergy Neo2). […] Data was exported and analyzed using Graph Pad Prism 7. […] The IC50 value was derived after the data was fitted on a 10-point curve using a four-parameter logistic regression model.

The nature of data set [1]: Metabolic stability assay in human liver microsomes (HLM). The data set is classed as in vitro ADME. The conditions noted are these: NADPH, sampled 0-120 min; for HLM t1/2: 3 μM test compound. On the procedure:
The LC-MS/MS analysis was performed using Agilent 1260 Infinity II HPLC, coupled with an Agilent G6460 triple quadrupole mass spectrometer (Agilent Technologies, USA). All the data were acquired employing Agilent 6460 Quantitative Analysis data processing software.
Reverse-phase HPLC separation for each compound was achieved either on an Agilent Porshell 120 EC-C8 column (2.1×50 mm, 2.7 μm), or on an Agilent Zorbax XDB C18 column (2.1×50 mm, 3.5 μm) with a mobile phase composed of methanol-water-formic acid or acetonitrile-water-formic acid (0.1%) at a flow rate of 0.5 mL/min (changes for some compounds). Each method was developed in the presence of an internal standard (ISTD) d5-7-ethoxy coumarin. The column temperature was maintained at 40° C. for most of the samples otherwise noted. The detection was operated in the Agilent JetStream electrospray positive ionization using multiple reaction monitoring mode (MRM).
Other MS conditions were as follows: dwell time 100 ms; gas flow 10 L/min; nebulizer pressure 45 psi; delta EMV 200 V; fragmentor voltage and collision energy for individual compounds vary.
Test compounds were dissolved in 100% DMSO or 100% MeOH to make 10 mM stock solutions. Verapamil (Sigma Aldrich) aided as a positive control and was dissolved in 100% DMSO to make 10 mM stock solutions. The 10 mM stock solution of test and control compounds were further diluted in potassium phosphate buffer (100 mM, pH 7.4) to 500 μM to ensure the organic solvent content was <0.2%. Human liver microsomes (HLMs) were purchased from Xenotech at 20 mg/mL. NADPH (Sigma Aldrich) 10 mM stocks were prepared in deionized water.
The HLM assay was prepared in a 1.5 mL Eppendorf tube with a final volume of 1100 μL for duplicate runs. Each reaction contained phosphate buffer (928.4 μL), liver microsomes (55 μL), and test compound resulting in a final concentration of 3 μM (6.6 μL of 500 μM). The reaction was initiated with 110 μL of 10 mM NADPH. Aliquots (100 μL) were removed in duplicate at 0, 15, 30, 60, 120 min (for prodrug compounds) and 0, 5, 10, 15, 30 min (verapamil, positive control compound) time intervals and quenched in cold […] of 100% methanol which contained internal standard (ISTD: d5-7-ethoxy coumarin 4 μM). Before centrifugation each of the aliquoted tubes were vortexed to make sure compounds were in the solution. The aliquots were centrifuged at 12,000 g for 5 min and the supernatant removed and placed in an LC-MS vial. Each time point was assessed using LC-MS and the area, based on the extracted ion, was integrated with respect to the ISTD. Positive controls were conducted at a final volume of 550 μL to give each time point in a single run. A no-NADPH negative control with test or control compound was performed in a single run (150 μL) at the longest time point. Controls were processed and analyzed like the test compounds. Each time point was run in duplicates followed by in-between blank washes to avoid the carryover and to equilibrate the column.

Another data set has as its system HEK293 cells. The conditions noted are these: 50% cytotoxic concentration; italicized results: absence of human serum albumin.
For another data set, the system named is HIV. The data set can be described thus: microbe, parasite or virus in culture. In kind it is cell-based. To be noted: italicized results: absence of human serum albumin.
The conditions of data set [2]: dogs, cited from earlier work.

Where “and” joins values, the source holds several entries; their conditions need not be identical. Equal values may be shown once. Where a name gives a salt, the structure may show the parent alone. Read-outs that look alike come from different tables or passages of the source.

Chain of CYP2D6 (P10635 whole entry, canonical isoform): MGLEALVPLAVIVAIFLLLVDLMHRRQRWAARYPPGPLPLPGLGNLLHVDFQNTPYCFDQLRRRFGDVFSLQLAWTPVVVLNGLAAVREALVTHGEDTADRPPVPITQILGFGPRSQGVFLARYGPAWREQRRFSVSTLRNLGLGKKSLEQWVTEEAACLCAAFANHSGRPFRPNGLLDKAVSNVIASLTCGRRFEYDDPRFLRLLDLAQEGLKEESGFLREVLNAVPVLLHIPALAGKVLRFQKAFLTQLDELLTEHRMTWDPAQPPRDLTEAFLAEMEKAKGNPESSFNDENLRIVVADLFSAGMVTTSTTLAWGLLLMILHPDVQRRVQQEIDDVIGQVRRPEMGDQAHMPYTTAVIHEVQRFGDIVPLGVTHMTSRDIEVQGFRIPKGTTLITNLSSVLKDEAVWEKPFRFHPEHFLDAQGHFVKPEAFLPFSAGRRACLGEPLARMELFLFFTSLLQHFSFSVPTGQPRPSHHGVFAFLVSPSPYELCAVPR

Regarding `CCCCCCCCCCCCCCCCCCOP(=O)(O)CO[C@H](C)Cn1cnc2c(N)ncnc21.N` [MD-1-105, Ammonium Octadecyl (R)-(((1-(6-amino-9H-purin-9-yl)propan-2-yl)oxy)methyl)phosphonate], the melting point is 154 to 184 °C (dec.). The IC50 on CYP2D6 turned out to be 20 µM. In addition, on CYP3A4, the IC50 was 52.9 µM. The “HLM t1/2” value in data set [1] came out at 13 min. It took 84.1 µM to reach half-maximal cytotoxicity with HEK293 cells (CC50).
For the molecule `C[C@H](Cn1cnc2c(N)ncnc21)OCP(=O)(O)O` [TFV, tenofovir, reference compound], the half-maximal inhibitory concentration (IC50) is 2060 nM and 1600 nM with HIV (pseudoviral particles, HEK293 cells, read-out: HIV IC50); over 50 µM on CYP2D6; 45.8 µM on CYP3A4. Moreover, in data set [1], the “HLM t1/2” value is recorded as over 120 min.
As to `CC(C)OC(=O)[C@H](C)N[P@](=O)(CO[C@H](C)Cn1cnc2c(N)ncnc21)Oc1ccccc1` [TAF, tenofovir alafenamide fumarate], the IC50 in the data set on HIV (Human immunodeficiency virus 1, HEK293, read-out: HIV IC50, pseudoviral particles, HEK293 cells) is 2 nM; with HIV (read-out: HIV IC50, pseudoviral particles, HEK293 cells), 1 nM; on CYP2D6 it was over 50 µM; at CYP3A4 it was 21 µM. Besides, in data set [1] (pH 7.4, 3 μM test compound, read-out: HLM t1/2), the half-life at 3 µM was 26 min. Moreover, the “fraction of dose converted to plasma TFV” value in data set [2] (single oral dose) was 17%. Also, the “fraction of dose sequestered for toxic side effects” value in data set [2] (single oral dose) was 82%. Besides, the “fraction of dose that achieved access to plasma unscathed” value in data set [2] (single oral dose) is 18%. Further, in data set [2], the “fraction of a single oral dose extracted by the liver” value is recorded as 65%.
With `C[C@H](Cn1cnc2c(N)ncnc21)OCP(=O)(O)OCCCCCCCCCCCCCCCCC#C[Si](C)(C)C.N` [NP-PD-042, Ammonium [(1R)-2-(6-aminopurin-9-yl)-1-methyl-ethoxy]methyl-(18-trimethylsilyloctadec-17-ynoxy)phosphinate], the values for the IC50 on CYP2D6 and at CYP3A4 were 27.1 µM and 27 µM, respectively. For the same molecule, the “HLM t1/2” value in data set [1] is given as over 120 min. In addition, in the data set with HEK293 cells, the CC50 is 68.1 µM.
On to `C#CCCCCCCCCCCCCCOP(=O)(O)CO[C@H](C)Cn1cnc2c(N)ncnc21.N` [EJM-8-006, Ammonium pentadec-14-yn-1-yl (R)-(((1-(6-amino-9H-purin-9-yl)propan-2-yl)oxy)methyl)phosphonate], for which the IC50 was 84.9 µM on CYP2D6 and 54.8 µM at CYP3A4. In addition, in data set [1], the “HLM t1/2” value is 94 min. In the data set with HEK293 cells, this molecule returned a CC50 of over 100 µM.
Turning to `CCCCCCCCCCCCCCCOP(=O)(O)CO[C@H](C)Cn1cnc2c(N)ncnc21.N` [MD-1-106, Ammonium Pentadecyl (R)-(((1-(6-amino-9H-purin-9-yl)propan-2-yl)oxy)methyl)phosphonate], the melting point is 162 to 190 °C (dec.). On CYP2D6, the IC50 was determined as 22 µM. Moreover, the IC50 at CYP3A4 amounted to 54.9 µM. Further, in data set [1], the “HLM t1/2” value was 13 min. Besides, in the data set on HEK293 cells, the CC50 is over 100 µM.
